Test results as given in patent US8063096B2, “Spirocyclic 3-phenyl-3substituted-4-ketolactams and-lactones” (Bayer Cropscience AG, priority 2001, dated 2011).

Columns and labels:
Type in all cases: in vivo
Myzus persicae = test: Myzus test (leaf dip, cabbage); settings: 500 ppm active compound, cabbage leaves dipped
Experimental: [table] To produce a suitable preparation of active compound, 1 part by weight of active compound is mixed with the stated amounts of solvent and emulsifier, and the concentrate is diluted with emulsifier-containing water to the desired concentration. Cabbage leaves (Brassica oleracea) which are heavily infested by peach aphids (Myzus persicae) are treated by being dipped into the preparation of active compound of the desired concentration. After the desired period of time, the kill in % is determined. 100% means that all aphids have been killed; 0% means that none of the aphids have been killed.

Alopecurus [1] = test: Pre-emergence test, Alopecurus; settings: pre-emergence/greenhouse; 250 g of ai/ha; after three weeks
Experimental: (§1) [table] To produce a suitable preparation of active compound, 1 part by weight of active compound is mixed with the stated amount of solvent, the stated amount of emulsifier is added and the concentrate is diluted with water to the desired concentration. Seeds of the test plants are sown in normal soil. After about 24 hours, the soil is sprayed with the preparation of active compound such that the particular amounts of active compound desired are applied per unit area. The concentration of the spray liquor is chosen such that the particular amounts of active compound desired are applied in 1000 l of water/ha. After three weeks, the degree of damage to the plants is rated in % damage in comparison to the development of the untreated control. The figures denote: • 0%=no effect (like untreated control) • 100%=total destruction

Avena fatua [2] = test: Pre-emergence test, Avena fatua; settings: pre-emergence/greenhouse; 250 g of ai/ha; after three weeks
Experimental: as §1

Echinochloa [3] = test: Pre-emergence test, Echinochloa; settings: pre-emergence/greenhouse; 250 g of ai/ha; after three weeks
Experimental: as §1

Setaria [4] = test: Pre-emergence test, Setaria; settings: pre-emergence/greenhouse; 250 g of ai/ha; after three weeks
Experimental: as §1

Sinapis [5] = test: Pre-emergence test, Sinapis; settings: pre-emergence/greenhouse; 250 g of ai/ha; after three weeks
Experimental: as §1

Sugar beet [6] = test: Pre-emergence test, Sugar beet; settings: pre-emergence/greenhouse; 250 g of ai/ha; after three weeks; crop
Experimental: as §1

Alopecurus [7] = test: Post-emergence test, Alopecurus; settings: post-emergence/greenhouse; 250 g of ai/ha; after three weeks
Experimental: as §1, with “Test plants” for “Seeds”, “a height of 5-15 cm” for “the test plants”, “are” for “are sown in normal soil. After about 24 hours, the soil is”, “(=like” for “(like”

Avena fatua [8] = test: Post-emergence test, Avena fatua; settings: post-emergence/greenhouse; 250 g of ai/ha; after three weeks
Experimental: as §1, with “Test plants” for “Seeds”, “a height of 5-15 cm” for “the test plants”, “are” for “are sown in normal soil. After about 24 hours, the soil is”, “(=like” for “(like”

Echinochloa [9] = test: Post-emergence test, Echinochloa; settings: post-emergence/greenhouse; 250 g of ai/ha; after three weeks
Experimental: as §1, with “Test plants” for “Seeds”, “a height of 5-15 cm” for “the test plants”, “are” for “are sown in normal soil. After about 24 hours, the soil is”, “(=like” for “(like”

Setaria [10] = test: Post-emergence test, Setaria; settings: post-emergence/greenhouse; 250 g of ai/ha; after three weeks
Experimental: as §1, with “Test plants” for “Seeds”, “a height of 5-15 cm” for “the test plants”, “are” for “are sown in normal soil. After about 24 hours, the soil is”, “(=like” for “(like”

Sinapis [11] = test: Post-emergence test, Sinapis; settings: post-emergence/greenhouse; 250 g of ai/ha; after three weeks
Experimental: as §1, with “Test plants” for “Seeds”, “a height of 5-15 cm” for “the test plants”, “are” for “are sown in normal soil. After about 24 hours, the soil is”, “(=like” for “(like”

Sugar beet [12] = test: Post-emergence test, Sugar beet; settings: post-emergence/greenhouse; 250 g of ai/ha; after three weeks; crop
Experimental: as §1, with “Test plants” for “Seeds”, “a height of 5-15 cm” for “the test plants”, “are” for “are sown in normal soil. After about 24 hours, the soil is”, “(=like” for “(like”

Meloidogyne incognita = test: Meloidogyne test (gall formation on lettuce roots); settings: 20 ppm active compound, nematicidal action by gall formation
Experimental: [table] To produce a suitable preparation of active compound, 1 part by weight of active compound is mixed with the stated amounts of solvent and emulsifier, and the concentrate is diluted with water to the desired concentration. Vessels are filled with sand, solution of active compound, Meloidogyne incognita egg/larvae suspension and lettuce seeds. The lettuce seeds germinate and the plants develop. On the roots, galls develop. After the desired period of time, the nematicidal action is determined in % by the formation of galls. 100% means that no galls have been found; 0% means that the number of galls on the treated plants corresponds to that of the untreated control.

Phaedon cochleariae = test: Phaedon larvae test; settings: 500 ppm active compound, cabbage leaves dipped
Experimental: [table] To produce a suitable preparation of active compound, 1 part by weight of active compound is mixed with the stated amounts of solvent and emulsifier, and the concentrate is diluted with emulsifier-containing water to the desired concentration. Cabbage leaves (Brassica oleracea) are treated by being dipped into the preparation of active compound of the desired concentration and are populated with larvae of the mustard beetle (Phaedon cochleariae) while leaves are still moist. After the desired period of time, the kill in % is determined. 100% means that all beetle larvae have been killed; 0% means that none of the beetle larvae have been killed.

Amaranthus [13] = test: Pre-emergence test, Amaranthus; settings: pre-emergence/greenhouse; 250 g of ai/ha; after three weeks
Experimental: as §1

Amaranthus [14] = test: Post-emergence test, Amaranthus; settings: post-emergence/greenhouse; 250 g of ai/ha; after three weeks
Experimental: as §1, with “Test plants” for “Seeds”, “a height of 5-15 cm” for “the test plants”, “are” for “are sown in normal soil. After about 24 hours, the soil is”, “(=like” for “(like”

SMILES | Kill rate in % after 6d (Myzus persicae) [%] | % damage, Alopecurus (Alopecurus [1]) [%] | % damage, Avena fatua (Avena fatua [2]) [%] | % damage, Echinochloa (Echinochloa [3]) [%] | % damage, Setaria (Setaria [4]) [%] | % damage, Sinapis (Sinapis [5]) [%] | % damage, Sugar beet (Sugar beet [6]) [%] | % damage, Alopecurus (Alopecurus [7]) [%] | % damage, Avena fatua (Avena fatua [8]) [%] | % damage, Echinochloa (Echinochloa [9]) [%] | % damage, Setaria (Setaria [10]) [%] | % damage, Sinapis (Sinapis [11]) [%] | % damage, Sugar beet (Sugar beet [12]) [%] | Kill rate in % after 14d (Meloidogyne incognita) [%] | Kill rate in % after 7d (Phaedon cochleariae) [%] | % damage, Amaranthus (Amaranthus [13]) [%] | % damage, Amaranthus (Amaranthus [14]) [%]
CCc1cc(Br)cc(Cl)c1C1(Cl)C(=O)NC2(CCC(OC)CC2)C1=O (centres unmarked) [Ex. I-1-a-44] | 98 | 100 | 100 | 100 | 100 | 80 | 0 | 95 | 100 | 100 | 100 | 70 | 0 | – | – | – | –
CCc1cc(Cl)cc(CC)c1C1(Cl)C(=O)NC2(CCC(OC)CC2)C1=O (centres unmarked) [Ex. I-1-a-43] | 90 | 95 | 100 | 100 | 100 | – | 0 | 90 | 100 | 100 | 100 | 70 | 0 | 95 | – | – | –
CCc1cc(Br)cc(C)c1C1(Cl)C(=O)NC2(CCCOC2)C1=O (centres unmarked) [Ex. I-1-b-12] | – | 95 | 100 | 100 | 100 | – | 0 | 90 | 100 | 100 | 100 | – | 0 | – | – | – | –
CCc1cc(Br)cc(C)c1C1(Cl)C(=O)NC2(CCC(OC)CC2)C1=O (centres unmarked) [Ex. I-1-a-26] | – | – | – | – | – | – | – | 100 | 100 | 100 | 100 | 80 | 0 | – | 100 | – | –
COC1CCC2(CC1)NC(=O)C(Cl)(c1c(C)cc(Br)cc1Cl)C2=O (centres unmarked) [Ex. I-1-a-10] | 99 | 100 | 90 | 100 | 100 | 90 | – | 90 | 90 | 100 | 100 | 80 | – | – | – | 80 | 80
